From publication PMC8795383, “Docking-guided rational engineering of a macrolide glycosyltransferase glycodiversifies epothilone B” (Communications Biology, 2022)
In brackets after ≈: the same amount, converted by molar mass. Where two headings read alike, the source gives them in different places.

Experiments:
HepG2 cells [1] = experiment: Cellular intake assay (HPLC-DAD); type: in vitro ADME, human; settings: HepG2, 5 μM, 1 h
Experimental: HepG2 cells (1 × 10^5−1 × 10^6 cells/mL) were cultivated overnight at 37°C and then treated with 5 μM EpoB and glycosides for 1 h. After removing the supernatant, the cells were sequentially rinsed with PBS buffer, trypsinized, and then washed with DMEM. Next, the cells were suspended in acetone, disrupted by ultrasonication, and centrifuged at 12000 rpm for 10 min to remove the debris. The resulting supernatants were dried with nitrogen and then redissolved in 200 μL of methanol. Finally, the compounds were analyzed by HPLC-DAD at 249 nm. Each experiment was conducted in three replicates. The concentrations of EpoB and its glycosides (cellular intake) were calculated based on the linear fitting regression equations of the HPLC peak areas.

physchem = type: physicochemical; settings: water
Experimental: The water solubility of EpoB and its glycosides was determined using the minimum shake-flask solubility method[26],[75].

[2] = system: liver carcinoma cell line HepG2; experiment: MTT antitumor assay; type: cell-based, human
Text: (§1) NDP-glucose (UDPG, ADPG, TDPG, and GDPG), UDP-N-acetylglucosamine (UDP-GlcNAc), UDP-galactose (UDP-Gal), and UDP-glucuronic acid (UDP-GlcA) were purchased from Sigma-Aldrich (St. Louis, MO, USA). UDP-GlcNAz, UDP-GalNAz, UDP-GlcNTFA, UDP-GalNTFA, UDP-GalNAc, UDP-GalA, CMP-Neu5Ac, GDP-Fuc and GDP-Man were kindly provided by Professor Junqiang Fang[59]–[63]. Epothilone B was purchased from Zhejiang Hisun Pharmaceutical Co., Ltd. The human liver carcinoma cell line HepG2 and human hepatocyte cell line HL-7702 were purchased from Gaining (Gaining Bio. Co., Ltd, Shanghai, China). The cells were cultivated in T-25 flasks in a Thermo Scientific CO2 incubator in a humidified environment at 37°C and 5% CO2. HepG2 cells were preserved in DMEM (Gibco, Thermo Fisher Scientific, Waltham, MA, USA), while HL-7702 cells were preserved in RPMI-1640 (Gibco, Thermo Fisher Scientific, Waltham, MA, USA). All cultures contained 10% fetal calf serum and 1% penicillin C/streptomycin. All chemicals and reagents are of analytical grade.
(§2) By using the MTT colorimetric assay, the antitumor and cytotoxicity of EpoB and its glucosides were tested against the liver carcinoma cell line HepG2 and hepatocyte cell line HL-7702, respectively. The cells were seeded in a 96-well microtiter plate, and the wall-attached cells were treated with varying concentrations of drugs by dilution from 300 μM to 0.1 μM for EpoB glycosides (dissolved in DMSO). After 48 h of incubation with the test compounds, the cultures were treated with MTT (2 mg/mL) solution, and the cells were incubated for an additional 4 h at 37°C until a purple precipitate was visible. The purple formazan crystals were dissolved in DMSO, and the absorbance of each sample was measured at 492 nm using a microplate reader. All MTT assay experiments were performed in triplicate, and IC50 values were calculated using GraphPad Prism software (Version 6.01)[26].

[3] = system: hepatocyte cell line HL-7702; experiment: MTT cytotoxicity assay; type: cell-based, human
Text: as §1, §2

HepG2 cells [4] = experiment: Immunofluorescence confocal imaging of tubulin; type: cell-based, human; settings: HepG2, 24 h
Experimental: Freshly trypsinized HepG2 cells (1 × 10^4−1 × 10^5) were seeded in a 12-well plate and cultivated for 24 h with DMEM (Gibco, Thermo Fisher Scientific, Waltham, MA, USA). Cells were treated with EpoB and 1a at different concentrations (50 nM, 500 nM, and 5 μM) according to the IC50 values for 24 h. The supernatants were removed, and the cells were washed with PBS buffer 2–3 times. The cells were further fixed with 4% paraformaldehyde for 1 h and then permeabilized with 0.2% Triton X-100 (diluted in PBS buffer) for 10 min. Next, the cells were blocked with bovine serum albumin (BSA) for 30 min and incubated with a primary antibody against β-tubulin (1:50, diluted in 2% BSA, β-tubulin Rabbit Monoclonal Antibody, Beyotime Biotechnology) for 1 h at room temperature. After that, the cells were treated with Alexa Fluor 488 goat anti-rabbit IgG (H + L) (secondary antibody, 1:500, diluted in 2% BSA, Beyotime Biotechnology) for another 1 h. The supernatants were removed, the cells were washed, and the nuclei were labeled with DAPI for 10 min. Images were collected using an Olympus BX81 fluorescence microscope system (Olympus, Tokyo, Japan) and a confocal microscope (UltraVIEW®VoX).

BsGT-1 I62A = target: T1, BsGT-1 I62A (Bacillus subtilis, UniProt O34539, I62A); type: biochemical; settings: EpoB converted to 1a, sugar donor 2a
T1 construct: made in house; host or cells: E. coli BL21 (DE3)
Experimental: (§3) Kinetic parameters of BsGT-1 and its mutants for the glycosylation of epothilone B were measured in a reaction mixture (50 μl) containing 20 μg/mL protein, saturated sugar donors, different concentrations of epothilone B, and 50 mM Tris–HCl buffer (50 mM Tris–HCl, pH 7.5, 10 mM MgCl2) at 37°C for 10 min in triplicate. The kinetic values were determined by fitting the Michaelis–Menten curve to the data using the nonlinear regression method (Supplementary Figs. 13–14).

BsGT-1 F231S = target: T2, BsGT-1 F231S (Bacillus subtilis, UniProt O34539, F231S); experiment: Glycosylation kinetics, BsGT-1 F231S mutant; type: biochemical; settings: EpoB converted to 1h, sugar donor 2h
T2 construct: made in house; host or cells: E. coli BL21 (DE3)
Experimental: as §3

BsGT-1 Q318C = target: T3, BsGT-1 Q318C (Bacillus subtilis, UniProt O34539, Q318C); experiment: Glycosylation kinetics, BsGT-1 Q318C mutant; type: biochemical; settings: EpoB converted to 1e, sugar donor 2e
T3 construct: made in house; host or cells: E. coli BL21 (DE3)
Experimental: as §3

BsGT-1 M296A = target: T4, BsGT-1 M296A (Bacillus subtilis, UniProt O34539, M296A); experiment: Glycosylation kinetics, BsGT-1 M296A mutant; type: biochemical; settings: EpoB converted to 1i, sugar donor 2i
T4 construct: made in house; host or cells: E. coli BL21 (DE3)
Experimental: as §3

[5] = read-out: IC50 HepG2, MTT, 48 h
[6] = read-out: IC50 HL-7702, MTT, 48 h
[7] = 25 °C, thermodynamic from solid, read-out: Solubility
[8] = Homo sapiens, HepG2, 48 h, read-out: IC50 HepG2, MTT, 48 h
[9] = Homo sapiens, L02, 48 h, read-out: IC50 HL-7702, MTT, 48 h

| SMILES | solubility (physchem; 25°C) [µg/mL] | IC50 [2, 5] [µM] | IC50 [3, 6] [µM] | solubility (physchem; [7]) [µg/mL] | IC50 [2, 8] [µM] | IC50 [3, 9] [µM] | further results |
| --- | --- | --- | --- | --- | --- | --- | --- |
| CC(=Cc1csc(C)n1)C1CC2OC2(C)CCCC(C)C(OC2OC(CO)C(O)C(O)C2O)C(C)C(=O)C(C)(C)C(O)CC(=O)O1 (stereo not drawn) [1a, EpoB 7-O-β-D glucoside] | 1550 ± 90 (≈ 2.31 mM) | 9.84 ± 0.57 | 27.6 ± 1.76 |  |  |  | cellular intake rate, lower than that of EpoB (HepG2 cells [1]): 12 fold; penetration into tumor cells and interaction with tubulin (HepG2 cells [4]): could penetrate into the tumor cells and interact with tubulin |
| CC(=Cc1csc(C)n1)C1CC2OC2(C)CCCC(C)C(OC2OC(CO)C(O)C(OC3OC(CO)C(O)C(O)C3O)C2O)C(C)C(=O)C(C)(C)C(O)CC(=O)O1 [1b, EpoB 7-O-β-D-glucosyl-(1 → 3)-β-D glucoside] |  |  |  | 86400 ± 1450 (≈ 104 mM) | > 100 |  |  |
| CC(=Cc1csc(C)n1)C1CC2OC2(C)CCCC(C)C(OC2OC(CO)C(O)C(O)C2OC2OC(CO)C(O)C(O)C2O)C(C)C(=O)C(C)(C)C(O)CC(=O)O1 [1c, EpoB 7-O-β-D-glucosyl-(1 → 2)-β-D glucoside] |  |  |  | 83000 ± 1540 (≈ 99.8 mM) | 34.2 ± 4.16 | 46.6 ± 0.48 |  |
| C/C(=C\c1csc(C)n1)[C@@H]1C[C@@H]2O[C@]2(C)CCC[C@H](C)[C@H](O[C@@H]2O[C@H](CO)[C@@H](O[C@@H]3O[C@H](CO)[C@@H](O)[C@H](O)[C@H]3O[C@@H]3O[C@H](CO)[C@@H](O)[C@H](O)[C@H]3O)[C@H](O)[C@H]2O)[C@@H](C)C(=O)C(C)(C)[C@@H](O)CC(=O)O1 [1d, epothilone B 7-O-β-D-glucosyl-(1 → 2)-β-D-glucosyl-(1 → 4)-β-D glucoside] | 184830 ± 3500 (≈ 186 mM) |  |  |  |  |  | IC50 ([2]; MTT, 48 h, read-out: IC50 HepG2): 38.2 ± 2.41 µM; IC50 ([3]; MTT, 48 h, read-out: IC50 HL-7702): 42.8 ± 1.15 µM |
| CC(=O)NC1C(OC2C(C)CCCC3(C)OC3CC(C(C)=Cc3csc(C)n3)OC(=O)CC(O)C(C)(C)C(=O)C2C)OC(CO)C(O)C1O (stereo not shown) [1e] |  |  |  | 8220 ± 930 (≈ 11.6 mM) | 19.8 ± 0.88 | 31.1 ± 3.77 |  |
| CC(=Cc1csc(C)n1)C1CC2OC2(C)CCCC(C)C(OC2OC(CO)C(O)C(O)C2NC(=O)CN=[N+]=[N-])C(C)C(=O)C(C)(C)C(O)CC(=O)O1 (stereo not shown) [1h] |  |  |  | 4340 ± 540 (≈ 5.77 mM) | 30.2 ± 2.91 | 40.4 ± 1.73 |  |
| CC(=Cc1csc(C)n1)C1CC2OC2(C)CCCC(C)C(OC2OC(CO)C(O)C(O)C2O)C(C)C(=O)C(C)(C)C(O)CC(=O)O1 (stereo not shown) [1i] | 3370 ± 550 (≈ 5.03 mM) | 1.09 ± 0.26 | 9.13 ± 1.02 |  |  |  | cellular intake rate, lower than that of EpoB (HepG2 cells [1]): 8 fold; activity higher than that of glucose-modified EpoB (1a) ([2]; HepG2, relative to 1a): ~10 fold |
| C/C(=C\c1csc(C)n1)[C@@H]1C[C@@H]2O[C@]2(C)CCC[C@H](C)[C@H](O)[C@@H](C)C(=O)C(C)(C)[C@@H](O)CC(=O)O1 [EpoB, epothilone B] |  | 0.00139 ± 0.0003 | 0.00293 ± 0.00053 |  | < 0.002 | < 0.003 | Km (BsGT-1 I62A): 43.6 ± 4.16 µM; kcat (BsGT-1 I62A): 0.3975 ± 0.023 s⁻¹; solubility (physchem; thermodynamic from solid, 25°C, read-out: Solubility): 190 ± 30 µg/mL (≈ 0.374 mM); Km (BsGT-1 F231S): 127 ± 12.9 µM; kcat (BsGT-1 F231S): 0.0723 ± 0.0033 s⁻¹; Km (BsGT-1 Q318C): 95.9 ± 7.98 µM; kcat (BsGT-1 Q318C): 0.164 ± 0.00367 s⁻¹; Km (BsGT-1 M296A): 147 ± 17 µM; kcat (BsGT-1 M296A): 0.0555 ± 0.003 s⁻¹ |
